Data reported in ChEMBL document CHEMBL1139122, “Structure-activity relationship (SAR) studies of quinoxalines as novel HCV NS5B RNA-dependent RNA polymerase inhibitors” (Bioorg Med Chem Lett, 2007).
pIC50: −log10 of the molar value.

Experiment: Inhibition of HCV NS5B RdRp
Set-up: species or system Hepacivirus hominis

SMILES | pIC50
O=C(N[C@@H](Cc1c[nH]c2ccccc12)C(=O)O)c1ccc2nc(-c3ccccc3)c(C3CCCCC3)nc2c1 | 5.74
O=C(N[C@@H](Cc1c[nH]c2ccc(O)cc12)C(=O)O)c1ccc2nc(C3CCCCC3)c(-c3ccccc3)nc2c1 | 5.30
O=C(N[C@@H](Cc1c[nH]c2ccccc12)C(=O)O)c1ccc2nc(C3CCCCC3)c(-c3ccc(F)cc3)nc2c1 | 5.47
O=C(N[C@@H](Cc1c[nH]c2ccccc12)C(=O)O)c1ccc2nc(-c3ccc(F)cc3)c(C3CCCCC3)nc2c1 | 5.80
O=C(O)/C=C/c1ccc(NC(=O)c2ccc3nc(C4CCCCC4)c(-c4ccc(F)cc4)nc3c2)cc1 | 5.39
O=C(N[C@@H](Cc1c[nH]c2ccc(O)cc12)C(=O)O)c1ccc2nc(-c3ccc(F)cc3)c(-c3ccc(F)cc3)nc2c1 | 5.89
Cc1ccc(-c2nc3ccc(C(=O)N[C@@H](Cc4c[nH]c5ccc(O)cc45)C(=O)O)cc3nc2-c2ccc(C)cc2)cc1 | 5.21
O=C(N[C@@H](Cc1c[nH]c2ccc(O)cc12)C(=O)O)c1ccc2nc(-c3ccccc3)c(C3CCCCC3)nc2c1 | 6.22
O=C(O)/C=C/c1ccc(NC(=O)c2ccc3nc(-c4ccc(F)cc4)c(C4CCCCC4)nc3c2)cc1 | 5.34
O=C(N[C@@H](Cc1c[nH]c2ccc(O)cc12)C(=O)O)c1ccc2nc(-c3ccc(F)cc3)c(C3CCCCC3)nc2c1 | 5.34
O=C(O)/C=C/COc1ccc2[nH]cc(C[C@H](NC(=O)c3ccc4nc(-c5ccc(F)cc5)c(-c5ccc(F)cc5)nc4c3)C(=O)O)c2c1 | 5.66
O=C(O)/C=C/c1ccc(NC(=O)C2(NC(=O)c3ccc4nc(-c5ccc(F)cc5)c(-c5ccc(F)cc5)nc4c3)CCC2)cc1 | 6.16
CCOC(=O)/C=C/c1ccc(NC(=O)C2(NC(=O)c3ccc4nc(C5CCCCC5)c(-c5ccc(F)cc5)nc4c3)CCC2)cc1 | 5.29
CCOC(=O)/C=C/c1ccc(NC(=O)c2ccc3nc(-c4ccc(F)cc4)c(-c4ccc(F)cc4)nc3c2)cc1 | < 4.00
COC(=O)[C@H](Cc1c[nH]c2ccc(O)cc12)NC(=O)c1ccc2nc(-c3ccco3)c(-c3ccco3)nc2c1 | 4.59
O=C(N[C@@H](Cc1c[nH]c2ccc(O)cc12)C(=O)O)c1ccc2nc(-c3ccccc3)c(-c3ccccc3)nc2c1 | 4.96
COC(=O)[C@H](Cc1c[nH]c2ccc(O)cc12)NC(=O)c1ccc2nc(-c3ccc(C)cc3)c(-c3ccc(C)cc3)nc2c1 | 4.31
O=C(O)c1ccc2nc(-c3ccc(F)cc3)c(-c3ccc(F)cc3)nc2c1 | 5.26
O=C(O)c1ccc2nc(-c3ccco3)c(-c3ccco3)nc2c1 | 4.77
O=C(O)c1ccc2nc(-c3ccccc3)c(-c3ccccc3)nc2c1 | 4.10
Cc1ccc(-c2nc3ccc(C(=O)O)cc3nc2-c2ccc(C)cc2)cc1 | 4.40
O=C(O)c1ccc2nc(-c3ccccn3)c(-c3ccccn3)nc2c1 | < 4.00
COC(=O)[C@H](Cc1c[nH]c2ccccc12)NC(=O)c1ccc2nc(-c3ccco3)c(-c3ccco3)nc2c1 | < 4.00
O=C(N[C@@H](Cc1c[nH]c2ccccc12)C(=O)O)c1ccc2nc(-c3ccco3)c(-c3ccco3)nc2c1 | 4.48
COc1cccc(-c2nc3ccc(C(=O)N[C@@H](Cc4c[nH]c5ccc(O)cc45)C(=O)O)cc3nc2-c2cccc(OC)c2)c1 | 4.82
O=C(O)/C=C/c1ccc(NC(=O)c2ccc3nc(-c4ccc(F)cc4)c(-c4ccc(F)cc4)nc3c2)cc1 | 4.77
COC(=O)[C@H](Cc1c[nH]c2ccc(O)cc12)NC(=O)c1ccc2nc(-c3ccc(F)cc3)c(-c3ccc(F)cc3)nc2c1 | 5.26

SMILES | pIC50
COC(=O)[C@H](Cc1c[nH]c2ccc(O)cc12)NC(=O)c1ccc2nc(-c3ccccc3)c(-c3ccccc3)nc2c1 | 4.14
O=C(N[C@@H](Cc1c[nH]c2ccccc12)C(=O)O)c1ccc2nc(C3CCCCC3)c(-c3ccccc3)nc2c1 | 5.43
COC(=O)[C@H](Cc1c[nH]c2ccccc12)NC(=O)c1ccc2nc(-c3cccc(OC)c3)c(-c3cccc(OC)c3)nc2c1 | < 4.00
O=C(N[C@@H](Cc1c[nH]c2ccc(O)cc12)C(=O)O)c1ccc2nc(C3CCCCC3)c(-c3ccc(F)cc3)nc2c1 | 5.39
CCOC(=O)/C=C/c1ccc(NC(=O)C2(NC(=O)c3ccc4nc(-c5ccc(F)cc5)c(C5CCCCC5)nc4c3)CCC2)cc1 | 5.89
COC(=O)[C@H](Cc1c[nH]c2ccccc12)NC(=O)c1ccc2nc(-c3ccccn3)c(-c3ccccn3)nc2c1 | < 4.00
O=C(O)COc1ccc2[nH]cc(C[C@H](NC(=O)c3ccc4nc(-c5ccc(F)cc5)c(-c5ccc(F)cc5)nc4c3)C(=O)O)c2c1 | 5.77
O=C(O)/C=C/c1ccc(NC(=O)c2ccc3nc(C4CCCCC4)c(-c4ccccc4)nc3c2)cc1 | 5.89
O=C(Nc1ccc(-c2ccc(C(=O)O)o2)cc1)c1ccc2nc(C3CCCCC3)c(-c3ccccc3)nc2c1 | 5.74
COc1cccc(-c2nc3ccc(C(=O)N[C@@H](Cc4c[nH]c5ccccc45)C(=O)O)cc3nc2-c2cccc(OC)c2)c1 | < 4.00
O=C(Nc1ccc(-c2ccc(C(=O)O)o2)cc1)c1ccc2nc(-c3ccccc3)c(C3CCCCC3)nc2c1 | 5.80
COC(=O)[C@H](Cc1c[nH]c2ccc(O)cc12)NC(=O)c1ccc2nc(-c3cccc(OC)c3)c(-c3cccc(OC)c3)nc2c1 | < 4.00
O=C(N[C@@H](Cc1c[nH]c2ccccc12)C(=O)O)c1ccc2nc(-c3ccc(F)cc3)c(-c3ccc(F)cc3)nc2c1 | 5.72
CCOC(=O)/C=C/c1ccc(NC(=O)C2(NC(=O)c3ccc4nc(-c5ccc(F)cc5)c(-c5ccc(F)cc5)nc4c3)CCC2)cc1 | 4.43
NC(=O)COc1ccc2[nH]cc(C[C@H](NC(=O)c3ccc4nc(-c5ccc(F)cc5)c(-c5ccc(F)cc5)nc4c3)C(=O)O)c2c1 | 5.49
CCOC(=O)/C=C/c1ccc(NC(=O)C2(NC(=O)c3ccc4nc(-c5ccc(F)cc5)c(-c5ccc(F)cc5)nc4c3)CCCC2)cc1 | < 4.00
O=C(O)/C=C/c1ccc(NC(=O)C2(NC(=O)c3ccc4nc(-c5ccc(F)cc5)c(-c5ccc(F)cc5)nc4c3)CCCC2)cc1 | 5.92
COC(=O)COc1ccc2[nH]cc(C[C@H](NC(=O)c3ccc4nc(-c5ccc(F)cc5)c(-c5ccc(F)cc5)nc4c3)C(=O)OC)c2c1 | 4.00
COC(=O)/C=C/COc1ccc2[nH]cc(C[C@H](NC(=O)c3ccc4nc(-c5ccc(F)cc5)c(-c5ccc(F)cc5)nc4c3)C(=O)OC)c2c1 | 4.28
COC(=O)[C@H](Cc1c[nH]c2ccc(OCC(N)=O)cc12)NC(=O)c1ccc2nc(-c3ccc(F)cc3)c(-c3ccc(F)cc3)nc2c1 | 5.07
O=C(N[C@@H](Cc1c[nH]c2ccccc12)C(=O)O)c1ccc2nc(-c3ccccc3)c(-c3ccccc3)nc2c1 | 4.82
COC(=O)[C@H](Cc1c[nH]c2ccccc12)NC(=O)c1ccc2nc(-c3ccccc3)c(-c3ccccc3)nc2c1 | < 4.00
COC(=O)[C@H](Cc1c[nH]c2ccccc12)NC(=O)c1ccc2nc(-c3ccc(C)cc3)c(-c3ccc(C)cc3)nc2c1 | < 4.00
O=C(N[C@@H](Cc1c[nH]c2ccc(O)cc12)C(=O)O)c1ccc2nc(-c3ccco3)c(-c3ccco3)nc2c1 | 4.80
COc1cccc(-c2nc3ccc(C(=O)O)cc3nc2-c2cccc(OC)c2)c1 | < 4.00
O=C(N[C@@H](Cc1c[nH]c2ccccc12)C(=O)O)c1ccc2nc(-c3ccccn3)c(-c3ccccn3)nc2c1 | < 4.00
COC(=O)[C@H](Cc1c[nH]c2ccccc12)NC(=O)c1ccc2nc(-c3ccc(F)cc3)c(-c3ccc(F)cc3)nc2c1 | < 4.00
